Results taken from the supplement of paper PMC4862054.

Legend:
Conditions in all cases: incubation time: 72 h
[1] = tested on: CAL-85-1; assay: drug sensitivity score (DSS), CellTox Green (DSS (AUC-based score)); higher = stronger drug effect (viability inhibition or cytotoxicity); extreme values may be limits of the assay
How it was run: (§1)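 In 384-well plates, compound was laid out at 5 concentrations in 10-fold steps over a 10,000-fold range specific to each compound, and breast cancer cell lines were seeded on top in 20 µl suspension for a 72 h incubation. CellTox Green fluorescence and then CellTiter-Glo luminescence were read, and each plate was normalised to 0.1 % DMSO and a positive kill control. The drug sensitivity score was calculated from the area under the fitted dose-response curve.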

[2] = tested on: CAL-51; assay: as above
How it was run: as §1

[3] = tested on: HCC1143; assay: as above
How it was run: as §1

[4] = tested on: MDA-MB-468; assay: as above
How it was run: as §1

[5] = tested on: DU-4475; assay: as above
How it was run: as §1

[6] = tested on: MDA-MB-231; assay: as above
How it was run: as §1

[7] = tested on: MFM-223; assay: as above
How it was run: as §1

[8] = tested on: MDA-MB-436; assay: as above
How it was run: as §1

[9] = tested on: Hs578T; assay: as above
How it was run: as §1

[10] = tested on: CAL-148; assay: as above
How it was run: as §1

[11] = tested on: BT-549; assay: as above
How it was run: as §1

[12] = tested on: MDA-MB-453; assay: as above
How it was run: as §1

[13] = tested on: CAL-85-1; assay: normalised viability (% of control), CellTiter-Blue; higher = more viable cells (about 100 = DMSO control)
How it was run: (§2)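 Plates were quality-checked by Z'-factor and normalised to vehicle (100) and a positive kill control (0). The underlying assay incubated breast cancer cell lines for 72 h on 384-well plates with compound, then added 2.5 µl CellTiter-Blue for 2 h at 37 °C and read at 560/590 nm. The value is normalised viability at a single listed concentration of the series.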

[14] = tested on: CAL-51; assay: as above
How it was run: as §2

[15] = tested on: HCC1143; assay: as above
How it was run: as §2

[16] = tested on: MDA-MB-468; assay: as above
How it was run: as §2

[17] = tested on: DU-4475; assay: as above
How it was run: as §2

[18] = tested on: MDA-MB-231; assay: as above
How it was run: as §2

[19] = tested on: HCC1599; assay: as above
How it was run: as §2

[20] = tested on: MFM-223; assay: as above
How it was run: as §2

[21] = tested on: SK-BR-3; assay: as above
How it was run: as §2

[22] = tested on: MDA-MB-436; assay: as above
How it was run: as §2

[23] = tested on: Hs578T; assay: as above
How it was run: as §2

[24] = tested on: CAL-148; assay: as above
How it was run: as §2

[25] = tested on: BT-474; assay: as above
How it was run: as §2

[26] = tested on: CAL-120; assay: as above
How it was run: as §2

[27] = tested on: HDQ-P1; assay: as above
How it was run: as §2

[28] = tested on: BT-549; assay: as above
How it was run: as §2

[29] = tested on: MDA-MB-453; assay: as above
How it was run: as §2

[30] = tested on: HCC1937; assay: as above
How it was run: as §2

C[C@]12CC[C@H](O)CC1=CC[C@@H]1[C@@H]2CC[C@]2(C)C(c3cccnc3)=CC[C@@H]12 [Abiraterone]
drug sensitivity score [1]: 0 | drug sensitivity score [2]: 0 | drug sensitivity score [3]: 0 | drug sensitivity score [4]: 0 | drug sensitivity score [5]: 0 | drug sensitivity score [6]: 0 | drug sensitivity score [7]: 0 | drug sensitivity score [8]: 0 | drug sensitivity score [9]: 0 | drug sensitivity score [10]: 0 | drug sensitivity score [11]: 0 | drug sensitivity score [12]: 0 | normalised viability ([13]; 1.5 nM): 93.2% | normalised viability ([14]; 1.5 nM): 104% | normalised viability ([15]; 5 nM): 67.2% | normalised viability ([16]; 5 nM): 105% | normalised viability ([17]; 1.5 nM): 84.6% | normalised viability ([18]; 5 nM): 86.8% | normalised viability ([19]; 5 nM): 104% | normalised viability ([20]; 5 nM): 102% | normalised viability ([21]; 5 nM): 97.7% | normalised viability ([22]; 5 nM): 101% | normalised viability ([23]; 5 nM): 101% | normalised viability ([24]; 1.5 nM): 91.5% | normalised viability ([25]; 5 nM): 116% | normalised viability ([26]; 5 nM): 81% | normalised viability ([27]; 1.5 nM): 104% | normalised viability ([28]; 5 nM): 99.7% | normalised viability ([29]; 1.5 nM): 104% | normalised viability ([30]; 5 nM): 110%

COc1ccc(-c2ccc3c(N4CCOC[C@@H]4C)nc(N4CCOC[C@@H]4C)nc3n2)cc1CO [AZD8055]
drug sensitivity score [1]: 0.628 | drug sensitivity score [2]: 7.39 | drug sensitivity score [3]: 8.37 | drug sensitivity score [4]: 2.01 | drug sensitivity score [5]: 0 | drug sensitivity score [6]: 0 | drug sensitivity score [7]: 0 | drug sensitivity score [8]: 0 | drug sensitivity score [9]: 0 | drug sensitivity score [10]: 14.2 | drug sensitivity score [11]: 0 | drug sensitivity score [12]: 0 | normalised viability ([13]; 3 nM): 85.1% | normalised viability ([14]; 3 nM): 88.2% | normalised viability ([15]; 10 nM): 100% | normalised viability ([16]; 10 nM): 98.2% | normalised viability ([17]; 3 nM): 95.8% | normalised viability ([18]; 10 nM): 80.7% | normalised viability ([19]; 10 nM): 89.3% | normalised viability ([20]; 10 nM): 71.9% | normalised viability ([21]; 10 nM): 72.5% | normalised viability ([22]; 10 nM): 98.3% | normalised viability ([23]; 10 nM): 91.1% | normalised viability ([24]; 3 nM): 89.3% | normalised viability ([25]; 10 nM): 108% | normalised viability ([26]; 10 nM): 91.4% | normalised viability ([27]; 3 nM): 83.4% | normalised viability ([28]; 10 nM): 92.5% | normalised viability ([29]; 3 nM): 94.6% | normalised viability ([30]; 10 nM): 77.2%

CN1CCN(CCOc2cc(OC3CCOCC3)c3c(Nc4c(Cl)ccc5c4OCO5)ncnc3c2)CC1 [Saracatinib]
drug sensitivity score [1]: 6.93 | drug sensitivity score [2]: 6.5 | drug sensitivity score [3]: 0 | drug sensitivity score [4]: 0 | drug sensitivity score [5]: 0 | drug sensitivity score [6]: 0 | drug sensitivity score [7]: 0 | drug sensitivity score [8]: 9.13 | drug sensitivity score [9]: 0 | drug sensitivity score [10]: 0 | drug sensitivity score [11]: 0 | drug sensitivity score [12]: 0 | normalised viability ([13]; 3 nM): 85.5% | normalised viability ([14]; 3 nM): 107% | normalised viability ([15]; 10 nM): 88% | normalised viability ([16]; 10 nM): 108% | normalised viability ([17]; 3 nM): 96.6% | normalised viability ([18]; 10 nM): 80.7% | normalised viability ([19]; 10 nM): 86.7% | normalised viability ([20]; 10 nM): 104% | normalised viability ([21]; 10 nM): 99.6% | normalised viability ([22]; 10 nM): 116% | normalised viability ([23]; 10 nM): 102% | normalised viability ([24]; 3 nM): 77.1% | normalised viability ([25]; 10 nM): 100% | normalised viability ([26]; 10 nM): 87.6% | normalised viability ([27]; 3 nM): 118% | normalised viability ([28]; 10 nM): 94.2% | normalised viability ([29]; 3 nM): 119% | normalised viability ([30]; 10 nM): 107%

CC[C@]1(O)C[C@H]2CN(CCc3c([nH]c4ccccc34)[C@@](C(=O)OC)(c3cc4c(cc3OC)N(C=O)[C@H]3[C@@](O)(C(=O)OC)[C@H](OC(C)=O)[C@]5(CC)C=CCN6CC[C@]43[C@@H]65)C2)C1 [Vincristine]
drug sensitivity score [1]: 14.4 | drug sensitivity score [2]: 14.1 | drug sensitivity score [3]: 0 | drug sensitivity score [4]: 22.1 | drug sensitivity score [5]: 0 | drug sensitivity score [6]: 15.7 | drug sensitivity score [7]: 12.5 | drug sensitivity score [8]: 0 | drug sensitivity score [9]: 8.32 | drug sensitivity score [10]: 0 | drug sensitivity score [11]: 9.25 | drug sensitivity score [12]: 0 | normalised viability ([13]; 0.3 nM): 95.6% | normalised viability ([13]; 3 nM): 86.1% | normalised viability ([14]; 0.3 nM): 102% | normalised viability ([14]; 3 nM): 103% | normalised viability ([15]; 1 nM): 71% | normalised viability ([15]; 10 nM): 40.7% | normalised viability ([16]; 1 nM): 54.2% | normalised viability ([16]; 10 nM): 41.2% | normalised viability ([17]; 0.3 nM): 96.6% | normalised viability ([17]; 3 nM): 89% | normalised viability ([18]; 1 nM): 73.8% | normalised viability ([18]; 10 nM): 27.5% | normalised viability ([19]; 1 nM): 84.1% | normalised viability ([19]; 10 nM): 106% | normalised viability ([20]; 1 nM): 91.1% | normalised viability ([20]; 10 nM): 85.5% | normalised viability ([21]; 1 nM): 33.8% | normalised viability ([21]; 10 nM): 15.9% | normalised viability ([22]; 1 nM): 105% | normalised viability ([22]; 10 nM): 70.6% | normalised viability ([23]; 1 nM): 97.2% | normalised viability ([23]; 10 nM): 15.5% | normalised viability ([24]; 0.3 nM): 80.4% | normalised viability ([24]; 3 nM): 85.3% | normalised viability ([25]; 1 nM): 53.4% | normalised viability ([25]; 10 nM): 47.9% | normalised viability ([26]; 1 nM): 58.2% | normalised viability ([26]; 10 nM): 23.4% | normalised viability ([27]; 0.3 nM): 100% | normalised viability ([27]; 3 nM): 96.4% | normalised viability ([28]; 1 nM): 82.7% | normalised viability ([28]; 10 nM): 43.7% | normalised viability ([29]; 0.3 nM): 112% | normalised viability ([29]; 3 nM): 65% | normalised viability ([30]; 1 nM): 99.2% | normalised viability ([30]; 10 nM): 23.1%
